According to patent US11299467B2 (Antabio SAS, priority 2017, dated 2022):
Like-named read-outs stand apart in the source and are kept apart here.

What was measured:
Type in all cases: biochemical
NDM-1 = NDM-1 (Klebsiella pneumoniae, UniProt C7C422); test: In vitro enzyme inhibition assay, purified NDM-1 (imipenem hydrolysis, UV 299 nm)
Method: (§1) Enzyme inhibition assays were performed using purified MBL enzymes (NDM-1; VIM-1; VIM-2; IMP-1) in 10 mM HEPES buffer pH 7.5 in 96-well microtiter plates. Imipenem (300 μM) was used as substrate and its hydrolysis was followed at UV 299 nm during 10 mn every 30 seconds using a Perkin Elmer Envision UV fluorescence plate reader.
(§2) Mean Ki values from multiple experiments are presented below.
(§3) Studies were undertaken to compare the compounds of the invention with structurally similar compounds (“Comp. x”). Experiments were conducted as described above.

VIM-1 = VIM-1 (Pseudomonas aeruginosa, UniProt A0A0F7KYQ8); test: In vitro enzyme inhibition assay, purified VIM-1 (imipenem hydrolysis, UV 299 nm)
Method: as §1, §2, §3

IMP-1 = IMP-1 (Serratia marcescens, UniProt P52699); test: In vitro enzyme inhibition assay, purified IMP-1 (imipenem hydrolysis, UV 299 nm)
Sequence of IMP-1 (P52699 19-246, looked up, species assumed): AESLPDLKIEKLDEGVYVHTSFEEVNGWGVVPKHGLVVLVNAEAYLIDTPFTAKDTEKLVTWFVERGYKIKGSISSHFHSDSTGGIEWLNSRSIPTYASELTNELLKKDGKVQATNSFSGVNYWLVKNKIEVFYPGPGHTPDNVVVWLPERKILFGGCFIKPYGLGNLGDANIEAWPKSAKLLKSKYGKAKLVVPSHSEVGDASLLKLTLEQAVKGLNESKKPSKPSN
Method: as §1, §2, §3

VIM-2 = VIM-2 (Escherichia coli, UniProt Q5U7L7); test: In vitro enzyme inhibition assay, purified VIM-2 (imipenem hydrolysis, UV 299 nm)
Method: as §1, §2, §3

[1] = mean Ki from multiple experiments, imipenem 300 μM, Cheng-Prusoff from IC50, read-out: Ki NDM-1
[2] = mean Ki from multiple experiments, imipenem 300 μM, Cheng-Prusoff from IC50, read-out: Ki VIM-1
[3] = mean Ki from multiple experiments, imipenem 300 μM, Cheng-Prusoff from IC50, read-out: Ki IMP-1
[4] = mean Ki from multiple experiments, imipenem 300 μM, Cheng-Prusoff from IC50, read-out: Ki VIM-2
[5] = comparative study bands, read-out: Ki NDM-1 (comparative study)
[6] = comparative study bands, read-out: Ki VIM-1 (comparative study)
[7] = comparative study bands, read-out: Ki IMP-1 (comparative study)

Sequence of NDM-1 (C7C422 29-270, looked up): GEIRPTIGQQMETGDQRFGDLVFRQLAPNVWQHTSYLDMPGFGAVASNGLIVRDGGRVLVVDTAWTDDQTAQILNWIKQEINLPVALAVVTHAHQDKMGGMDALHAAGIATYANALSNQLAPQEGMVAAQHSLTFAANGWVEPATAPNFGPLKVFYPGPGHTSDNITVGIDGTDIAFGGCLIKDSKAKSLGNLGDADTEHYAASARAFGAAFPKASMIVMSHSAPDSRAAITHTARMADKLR

SMILES	Ki (NDM-1; [1])	Ki (VIM-1; [2])	Ki (IMP-1; [3])	Ki (VIM-2; [4])	Ki (NDM-1; [5])	Ki (VIM-1; [6])	Ki (IMP-1; [7])	Ki (VIM-2; comparative study bands, read-out: Ki VIM-2 (comparative study))
NCC(=O)Nc1ccc(S(=O)(=O)Nc2scnc2C(=O)O)cc1OC(F)(F)F [Comp. G, reference compound]					0.03 to 0.1 µM	0.3 to 0.5 µM	0.15 to 0.6 µM	0.02 to 0.05 µM
N=C(N)NCC(=O)Nc1ccc(S(=O)(=O)Nc2scnc2C(=O)O)cc1C(N)=O [Example 6, 5-[[3-carbamoyl-4-[(2-guanidinoacetyl)amino]phenyl]sulfonylamino]thiazole-4-carboxylic acid]	0.2 to 2 µM	0.2 to 0.5 µM	1 to 10 µM					
N#Cc1cc(S(=O)(=O)Nc2scnc2C(=O)O)ccc1NC(=O)CN [Comp. F, reference compound]						0.15 to 0.3 µM		
C[C@@H](NC(=N)N)C(=O)Nc1ccc(S(=O)(=O)Nc2scnc2C(=O)O)cc1 [Example 11, 5-[[4-[[(2R)-2-guanidinopropanoyl]amino]phenyl]sulfonylamino]thiazole-4-carboxylic acid]	0.2 to 2 µM	0.2 to 0.5 µM	1 to 10 µM					
N=C(NCC(=O)Nc1ccc(S(=O)(=O)Nc2scnc2C(=O)O)cc1F)N1CCOCC1 [Example 33, 5-[[3-fluoro-4-[[2-(morpholine-4-carboximidoylamino)acetyl]amino]phenyl]sulfonylamino]thiazole-4-carboxylic acid]	0.2 to 2 µM	0.2 to 0.5 µM	1 to 10 µM					
CC(C(=N)N)C(=O)Nc1ccc(S(=O)(=O)Nc2scnc2C(=O)O)cc1F (stereo not shown) [Example 37, 5-[[4-[(3-amino-3-imino-2-methyl-propanoyl)amino]-3-fluoro-phenyl]sulfonylamino]thiazole-4-carboxylic acid]	0.2 to 2 µM	< 0.2 µM	1 to 10 µM					
N=C1NCCN1CC(=O)Nc1ccc(S(=O)(=O)Nc2scnc2C(=O)O)cc1F [Example 38, 5-[[3-fluoro-4-[[2-(2-iminoimidazolidin-1-yl)acetyl]amino]phenyl]sulfonylamino]thiazole-4-carboxylic acid]	0.2 to 2 µM	0.2 to 0.5 µM	1 to 10 µM					
NNC(=O)Nc1ccc(S(=O)(=O)Nc2scnc2C(=O)O)cc1F [Comp. I, reference compound]					0.1 to 0.3 µM	0.5 to 1 µM	0.6 to 5 µM	
N=C(N)NOCC(=O)Nc1ccc(S(=O)(=O)Nc2scnc2C(=O)O)cc1F [Example 42, 5-[[3-fluoro-4-[(2-guanidinooxyacetyl)amino]phenyl]sulfonylamino]thiazole-4-carboxylic acid]	0.2 to 2 µM	0.5 to 1 µM	1 to 10 µM					

More lines, now with the values ahead:

Ki (NDM-1; [1])	Ki (VIM-1; [2])	Ki (IMP-1; [3])	Ki (VIM-2; [4])	Ki (NDM-1; [5])	Ki (VIM-1; [6])	Ki (IMP-1; [7])	Ki (VIM-2; comparative study bands, read-out: Ki VIM-2 (comparative study))	SMILES
0.05 to 0.2 µM	0.2 to 0.5 µM	0.5 to 1 µM						N=C(N)CNC(=O)Cc1ccc(S(=O)(=O)Nc2scnc2C(=O)O)cc1F [Example 25, 5-[[4-[2-[(2-amino-2-imino-ethyl)amino]-2-oxo-ethyl]-3-fluoro-phenyl]sulfonylamino] thiazole-4-carboxylic acid]
< 0.05 µM	< 0.2 µM	< 0.5 µM	0.02 to 0.05 µM					N=C(N)NCCSC(=O)Nc1ccc(S(=O)(=O)Nc2scnc2C(=O)O)cc1F [Example 31, 5-[[3-fluoro-4-(2-guanidinoethylsulfanyl-carbonylamino)phenyl]sulfonylamino]thiazole-4-carboxylic acid]
0.2 to 2 µM	0.2 to 0.5 µM	1 to 10 µM						N=C(N)NCC(=O)Nc1ccc(S(=O)(=O)Nc2scnc2C(=O)O)nn1 [Example 14, 5-[[6-[(2-guanidinoacetyl)amino]pyridazin-3-yl]sulfonylamino]thiazole-4-carboxylic acid]
< 0.05 µM	0.2 to 0.5 µM	1 to 10 µM	0.02 to 0.05 µM					N=C(N)CNC(=O)Nc1ccc(S(=O)(=O)Nc2scnc2C(=O)O)cc1F [Example 30, 5-[[4-[(2-amino-2-imino-ethyl)carbamoylamino]-3-fluoro-phenyl]sulfonylamino]thiazole-4-carboxylic acid]
0.05 to 0.2 µM	0.2 to 0.5 µM	1 to 10 µM						CN(CC(=O)Nc1ccc(S(=O)(=O)Nc2scnc2C(=O)O)cc1F)C(=N)N [Example 8, 5-[[4-[[2-[carbamimidoyl(methyl)amino]acetyl]amino]-3-fluoro-phenyl]sulfonylamino]thiazole-4-carboxylic acid]
0.2 to 2 µM	0.5 to 1 µM	1 to 10 µM	0.05 to 0.15 µM					N=C(N)NCC(=O)NCc1ccc(S(=O)(=O)Nc2scnc2C(=O)O)cc1F [Example 45, 5-[[3-fluoro-4-[[(2-guanidinoacetyl)amino]methyl]phenyl]sulfonylamino]thiazole-4-carboxylic acid]
< 0.05 µM	0.2 to 0.5 µM	1 to 10 µM	0.05 to 0.15 µM					CNC(=N)CC(=O)Nc1ccc(S(=O)(=O)Nc2scnc2C(=O)O)cc1F [Example 22, 5-[[3-fluoro-4-[[3-imino-3-(methylamino)propanoyl]amino]phenyl]sulfonylamino]thiazole-4-carboxylic acid]
0.2 to 2 µM	0.2 to 0.5 µM	1 to 10 µM						CNC(=N)NCC(=O)Nc1ccc(S(=O)(=O)Nc2scnc2C(=O)O)cc1F [Example 40, 5-[[3-fluoro-4-[[2-[(N-methylcarbamimidoyl)amino]acetyl]amino]phenyl]sulfonylamino]thiazole-4-carboxylic acid]
0.05 to 0.2 µM	0.5 to 1 µM	1 to 10 µM						O=C(CNC1=NCCN1)Nc1c(F)cc(S(=O)(=O)Nc2scnc2C(=O)O)cc1F [Example 15, 5-[[4-[[2-(4,5-dihydro-1H-imidazol-2-ylamino)acetyl]amino]-3,5-difluoro-phenyl]sulfonylamino]thiazole-4-carboxylic acid]
0.05 to 0.2 µM	0.2 to 0.5 µM	< 0.5 µM						N=C(N)N/N=C/C(=O)Nc1ccc(S(=O)(=O)Nc2scnc2C(=O)O)cc1F [Example 43, 5-[[4-[[(2E)-2-(carbamimidoylhydrazono)acetyl]amino]-3-fluoro-phenyl]sulfonylamino]thiazole-4-carboxylic acid]
0.05 to 0.2 µM	0.2 to 0.5 µM	0.5 to 1 µM						CN(C)C(=N)CC(=O)Nc1ccc(S(=O)(=O)Nc2scnc2C(=O)O)cc1F [Example 12, 5-[[4-[[3-(dimethylamino)-3-imino-propanyl]amino]-3-fluoro-phenyl]sulfonylamino]thiazole-4-carboxylic acid]
0.05 to 0.2 µM	0.2 to 0.5 µM			0.1 to 0.3 µM	0.15 to 0.3 µM			N=C(N)NCC(=O)Nc1ccc(S(=O)(=O)Nc2scnc2C(=O)O)cc1 [Example 20, 5-[[4-[(2-guanidinoacetyl)amino]phenyl]sulfonylamino]thiazole-4-carboxylic acid]
< 0.05 µM	0.2 to 0.5 µM	0.5 to 1 µM						O=C(CC1=NCCN1)Nc1ccc(S(=O)(=O)Nc2scnc2C(=O)O)cc1F [Example 21, 5-[[4-[[2-(4,5-dihydro-1H-imidazol-2-yl)acetyl]amino]-3-fluoro-phenyl]sulfonylamino]thiazole-4-carboxylic acid]
0.05 to 0.2 µM	0.5 to 1 µM	1 to 10 µM						N=C(N)NNC(=O)Cc1ccc(S(=O)(=O)Nc2scnc2C(=O)O)cc1F [Example 24, 5-[[4-[2-(2-carbamimidoylhydrazino)-2-oxo-ethyl]-3-fluoro-phenyl]sulfonylamino]thiazole-4-carboxylic acid]
